Experimental data: patent US20250034105A1, “IS[…] N-METHYL-1,3-BENZODIOXOLYLBUTANAMINE (MBDB) AND STEREOISOMERS THEREOF” (Terran Biosciences Inc., priority 2021, published 2025)

What was measured:
Male Sprague-Dawley rats = assay: Rat elevated zero maze model of anxiety; format: in vivo; conditions: for frequency of stretched attend postures (SAPs): 30 min before 5-min test; for dose at which switch to an anxiolytic effect was shown (magnitude of reduction in SAPs): ip, rat zero maze
From the text: The rat zero-maze model is a refined alternative to the plus-maze, the most widely used animal model of anxiety, and consists of an elevated annular platform, divided equally into four quadrants. Two opposite quadrants are enclosed by Perspex walls on both the inner and the outer edges of the platform, while the remaining two opposite quadrants are open being enclosed only by a Perspex “lip”. Animals will show a preference for the closed areas, and avoidance of the open sections is assumed to stem from a rodent's natural aversion to open, exposed spaces. A reduction in the amount of activity on the open areas is considered to reflect an increase in anxiety. The ethologically-based behavior stretched attend postures (SAP) from closed to open quadrants is assessed as an index of anxiety. Increase in SAPs is indicative of an anxiogenic effect and decreases in SAPs is indicative of an anxiolytic effect. Shepherd, J K; Grewel, S S; Fletcher, A; Bill, D J; Dourish, C T (1994) Behavioural and pharmacological validation of the elevated “zero-maze” as an animal model of anxiety. Psychopharmacol., 116:56-64.
Male Sprague-Dawley 200-250 g (Envigo UK) rats were used. Animals were group-housed (5 per cage; cage size: 40×40×20 cm) in a temperature-controlled environment (22±2° C.), under a 12 h light-dark cycle (lights on: 08:00 hours) for one week prior to testing. Food and water were freely available. Number of animals per group=5. Animals were moved into the experimental room 16-24 hours before testing.
The elevated 0-maze comprises a black Perspex annular platform (105 cm diameter, 10 cm width) elevated to 65 cm above ground level, divided equally into four quadrants. Two opposite quadrants are enclosed by clear red Perspex walls (27 cm high) on both the inner and outer edges of the platform, while the remaining two opposite quadrants are surrounded only by a Perspex “lip” (1 cm high) which serves as a tactile guide to animals on these open areas.
Subjects were weighed and tail marked before being injected. After a specified pre-treatment time, subjects were placed in a closed quadrant and a 5-min test period were recorded on videotape for subsequent analysis. The maze was cleaned with 5% methanol/water solution and dried thoroughly between test sessions. Behavioural measures comprise percentage time spent on the open areas (% TO) and frequency of stretched attend postures (SAP) from closed to open quadrants. Since the control groups were all treated identically with the same vehicle these were combined to increase power. The Chlordiazepoxide groups were also treated identically with the same dose so these were also combined to increase power. Animals are scored as being in the open area when all four paws were in an open quadrant and in the closed area only when all four paws have passed over the open-closed divide. All testing were carried out between 9.00 and 16.00 hours.
Chlordiazepoxide was formulated in Vehicle 1 (saline) to a concentration of 1.2 mg/mL to provide a dose of 6 mg/kg when administered ip in 5 mL/kg dosing volumes.
35 male Sprague-Dawley rats in treatment groups of 5, were intraperitoneally dosed with either Vehicle 1 (saline) or Rac-MBDB at 1 of 5 dose levels (2.5, 5, 10, 15 & 30 mg/kg) or chlordiazepoxide (6 mg/kg) in 5 mL/kg injection volumes. Thirty min later at T-0, rats were individually placed in a closed arm of the zero-maze and behavior assessed by a “blind” observer using remote video monitoring over the subsequent 5 min. The animals were then removed and the maze carefully wiped with 5% methanol/water solution before the next test was begun.
35 male Sprague-Dawley rats in treatment groups of 5, were intraperitoneally dosed with either Vehicle 1 (saline) or R-MBDB at 1 of 5 dose levels (2.5, 5, 10, 15 & 30 mg/kg) or chlordiazepoxide (6 mg/kg) in 5 mL/kg injection volumes. […]

[1] = tested on: participants diagnosed with at least moderate post-traumatic stress disorder (PTSD); assay: Double-blind, randomized, placebo-controlled clinical trial of MBDB-assisted psychotherapy in PTSD; format: in vivo, human; conditions: results that "may" be observed; for change in CAPS-5 assessment compared to the placebo group: at Study Conclusion
Protocol: A multicenter, randomized, double-blind, placebo-controlled trial is conducted to assess the efficacy and safety of MBDB-assisted psychotherapy versus psychotherapy with placebo control in participants diagnosed with at least moderate post-traumatic stress disorder (PTSD). Rationale
This multicenter, randomized, double-blind, placebo-controlled trial is conducted at various sites in the United States with IRB approval from each study site. A flexible dose of MBDB hydrochloride salt or placebo, followed by a supplemental half-dose unless contraindicated by patient's previous response or medical history, is also administered during the Treatment Period with psychotherapy in at least 3 blinded monthly Experimental Sessions. The Supplemental Dose extends the duration of drug effects on the participants during an Experimental Session. MBDB test groups are further subdivided into specific groups receiving only racemic MBDB hydrochloride salt, S-MBDB hydrochloride salt, or R-MBDB hydrochloride salt. An optional Risk Evaluation and Mitigation Strategy (REMS) Protocol may be implemented for the racemic MBDB, S-MBDB, R-MBDB, and placebo-groups. The Treatment Period lasts for approximately 12 weeks. During the Treatment Period, each Experimental Session is followed by three Intervening Sessions of non-drug psychotherapy. Each Experimental Session involves an overnight stay. The Primary Outcome measure, the change in Clinician Administered PTSD Scale for DSM-5 (CAPS-5), is determined by a blinded Independent Rater (IR) pool multiple times throughout the study. The study consists of separate periods for each participant. Initially, prospective participants undergo a Screening Period involving an initial eligibility assessment, a medical history intake, informed consent, and enrollment of eligible participants. Next, a Preparation Period is undertaken for enrolled participants involving medication tapering and clinical baseline assessments to confirm each participant meets enrollment criteria. As part of the Preparation Period, a detailed assessment of co-morbidities to PTSD is recorded. Participants may remain on prescribed courses of selective serotonin reuptake inhibitor (SSRI) or serotonin and norepinephrine reuptake inhibitor (SNRI) treatment. Dosages and/or frequency of administration of a prescribed SSRI or SNRI may be adjusted to fit within study parameters. Participants may be required to taper a prescribed course of medication in order to maintain eligibility within the study. The Treatment Period consists of three monthly Experimental Sessions and associated Intervening Sessions of integrative behavioral psychotherapy. The Treatment Period lasts approximately 12 weeks. Following the Treatment Period is a Follow-up Period and Study Conclusion. During the Follow-up Period and Study Conclusion, participants complete 4 weeks with no study visits, followed by a Study Conclusion visit.
This study compares the effects of three blinded Experimental Sessions of psychotherapy in combination with flexible doses of MBDB or placebo administered as described below. Non-drug preparatory and intervening psychotherapy sessions are also included. Patient's weight is determined for dosage calculation. Initial dose is 180 mg unless this will result in a dosage of less than 1.5 mg/kg of patient weight. Initial dose thereby adjusted upward in 50 mg increments to deliver the lowest dose possible of at least 1.5 mg/kg of patient weight. Initial dose for Experimental Session 2 and 3 is cumulative dose calculated by adding the initial dose plus REMS protocol dose used the previous Experimental Session for each patient.
The primary objective of this study is to evaluate the efficacy and safety of MBDB treatment combined with psychotherapy to treat moderate to severe PTSD compared to identical psychotherapy combined with placebo treatment. […]

[2] = cited from earlier work

CC[C@H](Cc1ccc2c(c1)OCO2)NC [R-MBDB]
frequency of stretched attend postures (SAPs) (Male Sprague-Dawley rats; 10 mg/kg ip): produced a consistent level of SAPs similar to the 5 mg/kg | frequency of stretched attend postures (SAPs) (Male Sprague-Dawley rats; 15 mg/kg ip): showed a reduction in the number of SAPs compared to lower doses | frequency of stretched attend postures (SAPs) (Male Sprague-Dawley rats; 30 mg/kg ip, vs vehicle): decreased the frequency of SAPs as effectively as the benzodiazepine chlordiazepoxide | frequency of stretched attend postures (SAPs) (Male Sprague-Dawley rats; 30 mg/kg ip, vs vehicle, listed as R MBDB): significantly reduced the number of SAPs | dose at which switch to an anxiolytic effect was shown (magnitude of reduction in SAPs) (Male Sprague-Dawley rats): 15 mg/kg | change in CAPS-5 assessment compared to the placebo group [1]: significant mean reduction | clinician-rated functional impairment score as measured by SDS compared to placebo-treated controls [1]: significant improvement | daytime sleepiness as measured by ESS [1]: significant improvement | depression as measured by HAM-D compared to placebo-treated controls [1]: significant improvement

CCC(Cc1ccc2c(c1)OCO2)NC (stereo not drawn) [MBDB, 1-(benzo[d][1,3]dioxol-5-yl)-N-methylbutan-2-amine]
Coming Down, time after dose ([2]; adapted from PiHKAL 1991): ~90 min | Oral MBDB dose, drug activity level Very Strong ([2]; oral): ≥350 mg

CC[C@@H](Cc1ccc2c(c1)OCO2)NC [S-MBDB]
frequency of stretched attend postures (SAPs) (Male Sprague-Dawley rats; 5 mg/kg ip, vs vehicle): reached significance | frequency of stretched attend postures (SAPs) (Male Sprague-Dawley rats; 10 mg/kg ip): showed a rapid reduction in total SAPs | frequency of stretched attend postures (SAPs) (Male Sprague-Dawley rats; 15 mg/kg ip): showed a reduction in the number of SAPs compared to lower doses | frequency of stretched attend postures (SAPs) (Male Sprague-Dawley rats; 30 mg/kg ip, vs vehicle): decreased the frequency of SAPs as effectively as the benzodiazepine chlordiazepoxide | frequency of stretched attend postures (SAPs) (Male Sprague-Dawley rats; 30 mg/kg ip, vs vehicle, listed as S MBDB): significantly reduced the number of SAPs | dose at which switch to an anxiolytic effect was shown (magnitude of reduction in SAPs) (Male Sprague-Dawley rats): 10 mg/kg | change in CAPS-5 assessment compared to the placebo group [1]: significant mean reduction | clinician-rated functional impairment score as measured by SDS compared to placebo-treated controls [1]: significant improvement | daytime sleepiness as measured by ESS [1]: significant improvement | depression as measured by HAM-D compared to placebo-treated controls [1]: significant improvement
